Measured values published in US20040265940A1, “Amperometer sensor” (priority 2001, published 2004).
Like-named read-outs stand apart in the source and are kept apart here.

Experiments:
[1] = cited from earlier work; for Solubility: values obtained from SRC PhysProp Database
[2] = Potential of oxidation peak at a glassy carbon electrode; assay type: physicochemical; details: pH 6.95 bis-tris buffer, Ag/AgCl/sat. KCl reference electrode
[3] = versus SCE; cited from earlier work

Row | Structure (SMILES) | Eox (potential of oxidation peak) [2] | solubility in water ([1]; in water at 25° C.) | Solubility [1] | solubility in water ([1]; in water at 18° C.) | oxidation potential [3]
1 | O=C1C=CC(=O)C=C1 [1,4-benzoquinone, reference compound] | 278 mV |  | 1.11 E+04 (SRC) mg/L | 11,000 mgL^−1 | approximately +400 mV
2 | COC1=CC(=O)C=C(OC)C1=O [2,6-dimethoxy-1,4-benzoquinone] | 166 mV | 70,600 mgL^−1 | 7.06 E+04 (SRC) mg/L |  | 
3 | CC1=C(C)C(=O)C(C)=C(C)C1=O [Tetramethyl-1,4-benzoquinone] | −37 mV | 443 mgL^−1 | 4.43 E+02 (SRC) mg/L |  | 

Further lines, with some results ahead:

Row | Eox (potential of oxidation peak) [2] | Structure (SMILES) | solubility in water ([1]; in water at 25° C.) | Solubility [1] | solubility in water ([1]; in water at 18° C.) | oxidation potential [3]
4 | 137 mV | CC1=CC(=O)C=C(C)C1=O | 7888 mgL^−1 | 7.88 E+03 (SRC) mg/L |  | 
5 | 156 mV | COC1=C(OC)C(=O)C(C)=CC1=O [2,3-dimethoxy-5-methyl-1,4-benzoquinone] | 11,000 mgL^−1 | 1.11 E+04 (SRC) mg/L |  | 
6 | 158 mV | COC1=CC(=O)C=C(CO)C1=O [2-hydroxymethyl-6-methoxy-1,4-benzoquinone] |  |  |  | 
7 | 229 mV | O=C1C=CC(=O)C(c2ccccc2)=C1 [Phenyl-1,4-benzoquinone] | 1135 mgL^−1 | 1.14 E+03 (SRC) mg/L |  | 
